The values below come from US20250236578A1, “NOVEL CANNABINOID DERIVATIVES” (CANNASOUL ANALYTICS LTD., priority 2021, published 2025).

In assay [1] the test system is PC3 cell line. The assay can be described thus: PI-positive cell count, prostate cancer cells (IncuCyte). The format is cell-based, Human. The conditions noted are these: for Number of cells (PI-positive): 24 h post-treatment. How it is done: (§1) The effect of the compounds according to certain embodiments of the present invention as anti-cancer agents was assessed. Human cancer cells of prostate (PC3 cell line), bladder (T24 cell line), or breast (MDA-MB-231 cell line) cancers were thawed and cultured in suitable media at a final concentration of 3×10^5 cells/mL and tested in triplicates. Following 24 hours of incubation, cells were treated with the tested compounds at 2 μg/ml and 4 μg/ml concentrations or controls (cells were grown in starvation medium and treated with Mitomycin C). Mitomycin C is a potent antineoplastic agent that creates DNA cross-linkage resulting in cell arrest and consequently cell death. It is used to treat various types of cancers such as bladder and breast cancers. In in-vitro models, it acts as a proliferation inhibitor as it induces G0-G1 cell growth arrest. The number of cells in each sample was quantified immediately upon treatment (time-point 0) and every 24 hours until full cell confluency was reached. 24 hours post-treatment, PI (1 μg/ml) was added to the treated cells for 1 hour. Using cell-by-cell analysis (IncuCyte™ cell imager), the PI-positive cells were counted and compared to the relative number of cells in the non-treated (NT) wells.

Assay [2] concerns Human adrenal cells. The experiment in a line: Steroidogenesis: cortisol secretion by Forskolin-stimulated human adrenal cells (ELISA). The format is cell-based. The conditions noted are these: 24 h, Forskolin 10 μM. On the procedure:
The effect of the compounds according to certain embodiments of the present invention as inhibitors of steroidogenesis was assessed. Human adrenal cells were thawed and cultured in a suitable medium at a final concentration of 5×10^5 cells per mL (performed in triplicates). Following 24 hours of incubation, cells were treated with 10 μM Forskolin. After 48 hours of incubation, cells were treated with controls (1 μM Prochloraz, and 0.2 μg/mL or 1 μg/mL CBD) and compounds according to embodiments of the present invention for 24 hours. Next, supernatants were collected, and the secretion levels of cortisol were measured by ELISA (R&D systems). Optical density was determined by ‘CLARIOStar-plus’® plate-reader. Cortisol concentration (ng/ml) was calculated using a standard curve.

For assay [3], the system named is MDA-MB-231 cell line. The assay can be described thus: PI-positive cell count, breast cancer cells (IncuCyte). In kind it is cell-based, Human. The conditions noted are these: for Number of cells (PI-positive): 24 h post-treatment. How it is done:
as §1

Assay [4] concerns T24 cell line. The experiment in a line: PI-positive cell count, bladder cancer cells (IncuCyte). In kind it is cell-based, Human. The conditions noted are these: for Number of cells (PI-positive): 24 h post-treatment. How it is done:
as §1

Where [5] appears, read: Breast cancer MDA-MB-231, 2 μg/ml.
Where [6] appears, read: Breast cancer MDA-MB-231, 4 μg/ml.

Molecules are shown by their SMILES.

For `C=C(C)[C@@H]1CCC(C)=C[C@H]1c1c(O)cc(CCCCC)cc1O` [CBD, cannabidiol, reference compound], the “% NT (PI-positive cells relative to non-treated)” value stood at 90% in assay [1] (Prostate cancer PC3, 2 μg/ml); 320% in assay [1] (Prostate cancer PC3, 4 μg/ml); 175% in assay [3] (setting [5]); 1325% in assay [3] (setting [6]); 156% in assay [4] (Bladder cancer T24, 2 μg/ml); 1794% in assay [4] (Bladder cancer T24, 4 μg/ml). Further, the “Number of cells (PI-positive)” value in assay [1] (Prostate cancer PC3, 2 μg/ml) is reported as 22.53; in assay [1] (Prostate cancer PC3, 4 μg/ml), 80.13; in assay [3] (setting [5]), 89.40; in assay [3] (setting [6]), 675.73; in assay [4] (Bladder cancer T24, 2 μg/ml), 171.47; in assay [4] (Bladder cancer T24, 4 μg/ml), 1969.93. Besides, the “Cortisol” value in assay [2] (inhibitor 0.2 μg/mL) worked out at 101 ng/mL; in assay [2] (inhibitor 1 μg/mL), 62 ng/mL. For the same compound, the “Cortisol % of Forskolin” value in assay [2] (inhibitor 0.2 μg/mL) is 95%; in assay [2] (inhibitor 1 μg/mL) it was 58%.
As to `CCCCCCc1cc(O)c(C2C=C(C)CCC2C(C)(C)O)c(O)c1` (stereo not drawn) [Formula 1], the “% NT (PI-positive cells relative to non-treated)” value was determined as 216% in assay [1] (Prostate cancer PC3, 2 μg/ml) and 260% in assay [1] (Prostate cancer PC3, 4 μg/ml). Further, the “Number of cells (PI-positive)” value in assay [1] (Prostate cancer PC3, 2 μg/ml) was 54.13; in assay [1] (Prostate cancer PC3, 4 μg/ml), 65.27. Moreover, the “Cortisol” value in assay [2] (inhibitor 0.2 μg/mL) is 37 ng/mL; in assay [2] (inhibitor 1 μg/mL) it was 24 ng/mL. In addition, the “Cortisol % of Forskolin” value in assay [2] (inhibitor 0.2 μg/mL) is 35%; in assay [2] (inhibitor 1 μg/mL), 22%.
Turning to `CCCCCc1cc(O)c(C2CC(C)CCC2C(C)(C)O)c(O)c1` (stereo not drawn) [Formula 2], in assay [1] (Prostate cancer PC3, 2 μg/ml), the “% NT (PI-positive cells relative to non-treated)” value is on record as 307% and the “Number of cells (PI-positive)” value is 76.93. For the same compound, in assay [1] (Prostate cancer PC3, 4 μg/ml), the “% NT (PI-positive cells relative to non-treated)” value was 363% and the “Number of cells (PI-positive)” value is 90.93. Besides, in assay [2] (inhibitor 0.2 μg/mL), the “Cortisol” value came to 100 ng/mL and the “Cortisol % of Forskolin” value came out at 94%. In assay [2] (inhibitor 1 μg/mL), the “Cortisol” value was 77 ng/mL and the “Cortisol % of Forskolin” value was 72%.
In the case of `CCCCCCCc1cc(O)c(C2C=C(C)CCC2C(C)(C)O)c(O)c1` (stereo not drawn) [Formula 4], the “% NT (PI-positive cells relative to non-treated)” value in assay [1] (Prostate cancer PC3, 2 μg/ml) was 228%; in assay [1] (Prostate cancer PC3, 4 μg/ml) it was 2810%; in assay [3] (setting [5]) it was 120%; in assay [3] (setting [6]), 1417%; in assay [4] (Bladder cancer T24, 2 μg/ml), 108%; in assay [4] (Bladder cancer T24, 4 μg/ml), 703%. In addition, the “Number of cells (PI-positive)” value in assay [1] (Prostate cancer PC3, 2 μg/ml) is 57.27; in assay [1] (Prostate cancer PC3, 4 μg/ml), 704.33; in assay [3] (setting [5]), 61.07; in assay [3] (setting [6]), 722.47; in assay [4] (Bladder cancer T24, 2 μg/ml), 118.20; in assay [4] (Bladder cancer T24, 4 μg/ml), 771.60. Moreover, the “Cortisol” value in assay [2] (inhibitor 0.2 μg/mL) is recorded as 38 ng/mL; in assay [2] (inhibitor 1 μg/mL), 35 ng/mL. Further, the “Cortisol % of Forskolin” value in assay [2] (inhibitor 0.2 μg/mL) is given as 36%; in assay [2] (inhibitor 1 μg/mL) it was 32%.
Turning to `CCCCCCC(C)(C)c1cc(O)c(C2C=C(C)CCC2C(C)(C)O)c(O)c1` (stereo not drawn) [Formula 7], the “% NT (PI-positive cells relative to non-treated)” value turned out to be 326% in assay [1] (Prostate cancer PC3, 2 μg/ml); 4139% in assay [1] (Prostate cancer PC3, 4 μg/ml); 277% in assay [3] (setting [5]); 2197% in assay [3] (setting [6]); 429% in assay [4] (Bladder cancer T24, 2 μg/ml); 1156% in assay [4] (Bladder cancer T24, 4 μg/ml). Moreover, the “Number of cells (PI-positive)” value in assay [1] (Prostate cancer PC3, 2 μg/ml) is listed as 81.80; in assay [1] (Prostate cancer PC3, 4 μg/ml) it was 1037.53; in assay [3] (setting [5]), 141.47; in assay [3] (setting [6]), 1120.53; in assay [4] (Bladder cancer T24, 2 μg/ml) it was 470.67; in assay [4] (Bladder cancer T24, 4 μg/ml), 1269.33. Moreover, the entries for the “Cortisol” value in assay [2] (inhibitor 0.2 μg/mL) and in assay [2] (inhibitor 1 μg/mL) were 39 ng/mL and 47 ng/mL, respectively. For the same compound, the “Cortisol % of Forskolin” value in assay [2] (inhibitor 0.2 μg/mL) turned out to be 37%; in assay [2] (inhibitor 1 μg/mL) it was 44%.
Regarding `CCCCCc1cc(O)c(C2C=C(C)CCC2C(C)(C)O)c(O)c1C(=O)OC` (stereo not drawn) [Formula 12], in assay [1] (Prostate cancer PC3, 2 μg/ml), the “% NT (PI-positive cells relative to non-treated)” value was found to be 215% and the “Number of cells (PI-positive)” value was 53.93. In addition, in assay [1] (Prostate cancer PC3, 4 μg/ml), the “% NT (PI-positive cells relative to non-treated)” value is reported as 390% and the “Number of cells (PI-positive)” value stood at 97.80. In assay [2] (inhibitor 0.2 μg/mL), the “Cortisol” value is reported as 43 ng/mL and the “Cortisol % of Forskolin” value is reported as 41%. Besides, in assay [2] (inhibitor 1 μg/mL), the “Cortisol” value is 45 ng/mL and the “Cortisol % of Forskolin” value turned out to be 42%.
On to `CCCCCc1cc(O)c(C2C=C(C)CCC2C(C)(C)O)c(O)c1C(=O)NCCCN1CCOCC1` (stereo not drawn) [Formula 14], for which, in assay [2] (inhibitor 0.2 μg/mL), the “Cortisol” value was found to be 41 ng/mL and the “Cortisol % of Forskolin” value is 39%. Also, in assay [2] (inhibitor 1 μg/mL), the “Cortisol” value is 45 ng/mL and the “Cortisol % of Forskolin” value is listed as 42%.
For `CCCN(CCOc1c(Cl)cc(Cl)cc1Cl)C(=O)n1ccnc1` [Prochloraz, reference compound], in assay [2] (inhibitor 1 μg/mL), the “Cortisol” value came to 23 ng/mL and the “Cortisol % of Forskolin” value was found to be 22%.
